Test results taken from patent publication US4783482A, “Bis(thiocyanato)palladium(II)complexes” (Engelhard Corporation, priority 1985, dated 1988).
Values joined by “and” are separate entries in the source; they are usually repeats but may differ in a detail not shown here. Equal values may be shown once.

Assays:
[1] = test system: S180 ascites; assay: Anti-tumor evaluation: % increase in life span (% ILS) and survivors, S180 ascites in female CFW Swiss mice; format: in vivo; settings: for Best % ILS: best over doses
Protocol: The above-prepared compounds were evaluated against S180 ascites in female CFW Swiss mice. The mice were weighed (average weight: 20 g), placed into cages (four or six mice to a cage), and on day zero the mice were inoculated with 0.2 ml of a freshly prepared saline suspension (0.15 M NaCl) containing 1×10^7 tumor cells/ml or a total of 2×10^6 cells This inoculum was freshly prepared using "transfer" mice, which had been injected with tumor cells the previous week; it was obtained via the following steps: (1) the removal of cells from the peritoneal cavity of the sacrificed transfer mouse, (2) alternate centrifugation and washing operations (2-3 times with cold saline) to remove blood and other components, and (3) dilution of the volume of the packed cell with saline (1:3). A final centrifugation was carried out at 1000 RPM over a two minute period. A cell count was made on a 2,000-fold dilution of this 1:3 suspension by means of a Coulter Counter. A final dilution to 1×10^7 cells/ml was made, based on the average count.
On day 1, solutions of the test compounds were prepared, and each mouse in a set of four or six were injected with the same test compound at the same dosage. The doses were based on the average weight of the animals (cage weight). Also, beginning on day 1, two controls were employed containing six mice per control:
(1) Normal Control: This consisted solely of the carrier or diluent used in combination with the test compound; and
(2) Positive Control: This consisted solely of known anti-tumor agent cis-[Pt(NH3)2 Cl2 ] in saline (8 mg/kg) to test the response of the biological system.
The effectiveness of a test compound was measured in terms of the % increase in life span (%ILS) of the test mice relative to the Normal Control (Calculated from the day of tumor inoculation, i.e., day zero). To standardize the test data and permit intercomparisons, the day of evaluation was arbitrarily taken as that day corresponding to twice the mean life span (or average day of death) of the control. This established a practical upper limit of 100% on the %ILS attainable. For calculation purposes, the survivors of the day of evaluation were considered to have died on that day. The %ILS was calculated as follows: [formula] ILS values in excess of 50% were interpreted as antitumor activity, whereas values in excess of 75% indicated excellent antitumor activity.
All test compounds were evaluated in water containing 0.1-0.3% of the suspending agent "Klucel" (hydroxypropylcellulose).
Tables 3 and 4, infra, show the criticality of the ring size and the thiocyanato substituents, respectively. The protocols for determining effectiveness for the products in Tables 3 and 4 were identical to the procedure employed for determining the anti-tumor effectiveness of the products in Table 2.

[2] = test system: testicular and ovarian tumors; settings: background; cited from earlier work
[3] = test system: S180 Ascites; assay: ED90, LD50 and therapeutic index, S180 ascites; format: in vivo, mice; set-up: ED90: unit not given here; settings: for Therapeutic Index: mouse, in vivo
Protocol: The effective dose (ED90), lethal does (LD50) and therapeutic index (TI) were determined, via the method of Miller and Taiter (Reported by R. A. Turner, "Screening Methods in Pharmacology", Academic Press, New York, pages 61-62 (1976)).
In this study, ED90 represents the dose which causes a 50% increase in life span (ILS) in 90% of the test animals (mice), determined graphically. The LD50 value represents the lethal dose in 50% of said animals.

[4] = dose 5 mg/kg, on day of evaluation (twice mean life span of control)
[5] = dose 10 mg/kg, on day of evaluation
[6] = dose 20 mg/kg, on day of evaluation
[7] = dose 40 mg/kg, on day of evaluation
[8] = dose 80 mg/kg, on day of evaluation
[9] = dose 160 mg/kg, on day of evaluation

| Structure (SMILES) | Best % ILS [1] | % ILS ([1]; dose 5 mg/kg) | Survivors [1, 4] | % ILS ([1]; dose 10 mg/kg) | Survivors [1, 5] | % ILS ([1]; dose 20 mg/kg) | Survivors [1, 6] | % ILS ([1]; dose 40 mg/kg) | Survivors [1, 7] | % ILS ([1]; dose 80 mg/kg) | Survivors [1, 8] | % ILS ([1]; dose 160 mg/kg) | Survivors [1, 9] | Therapeutic Index [3] | further results |
| --- | --- | --- | --- | --- | --- | --- | --- | --- | --- | --- | --- | --- | --- | --- | --- |
| N.N.[Cl][Pt][Cl] [Positive Control, cis-[Pt(NH3)2 Cl2]] |  |  |  |  |  |  |  |  |  |  |  |  |  |  | Positive Control Survivors ([1]; 8 mg/kg in saline, run beside the test compound): 2 of 6 and 3 of 6 and 1 of 4 and 1 of 6 and 0 of 6; anti-tumor activity (in words) [2]: singularly successful in bringing about a regression of testicular and ovarian tumors |
| N#C[S][Pd][S]C#N.NC1CCCCC1N (stereo not drawn) [Ex. 3, Bis(ThiocYanato)-1,2-Diaminocyclohexanepalladium(II)] | 100% and 75% | 0% | 0 of 4 | 5% | 0 of 4 | 1% | 0 of 4 | -1% and -3% | 0 of 4 | 75% and 100% | 3 of 4 and 4 of 4 | 39% | 1 of 4 | 2.0 and 2.8 | % ILS ([1]; dose 60 mg/kg): 22%; Survivors ([1]; dose 60 mg/kg, on day of evaluation): 0 of 4; % ILS ([1]; dose 100 mg/kg): 79%; Survivors ([1]; dose 100 mg/kg, on day of evaluation): 2 of 4; % ILS ([1]; dose 120 mg/kg): 36%; Survivors ([1]; dose 120 mg/kg, on day of evaluation): 2 of 4; % ILS ([1]; dose 140 mg/kg): 36%; Survivors ([1]; dose 140 mg/kg, on day of evaluation): 1 of 4 |
| Cc1cc2c(cc1C)[NH][Pd]([S]C#N)([S]C#N)[NH]2 [Ex. 6, Bis(Thiocyanato)-4,5-Dimethyl-o-Phenylenediaminepalladium(II)] | 65% | -1% | 0 of 6 | 24% | 0 of 6 | 10% | 0 of 6 | 2% | 0 of 6 | 13% | 0 of 6 | 65% | 2 of 6 | 1.8 | ED90 ([3]; dose which causes a 50% increase in life span in 90% of the mice, determined graphically): 200 |
